Measurements from US11807625B2, “Capsid inhibitors for the prevention of HIV” (Gilead Sciences, Inc., priority 2019, dated 2023).

Experiment: PK of compound of Formula (Ia) after single subcutaneous dose of solution formulations in Wistar Han rats
Assay type: in vivo
Conditions: male, Wistar Han, rat, plasma, sc, 50 mg/kg, SC 50 mg/kg
Method: Formulations containing the compound of Formula (Ia), or a pharmaceutically acceptable salt thereof, were prepared as solutions and optionally administered subcutaneously or intramuscularly to rats, rabbits, and/or dogs.
(§1) A solution of about 400 mg/mL of the compound of Formula (Ia) having 19.14 w/w % water, 40.66 w/w % PEG 300, 35.20 w/w % of a sodium salt of a compound of Formula (Ia), and 5.00% ethanol was prepared. The solution was administered subcutaneously to male Wistar Han rats at a dose level of about 50 mg/kg and dose volume of 0.125 mL/kg and the pharmacokinetic (PK) profile was determined.
as §1, with “500” for “400”, “16.64” for “19.14”, “35.36” for “40.66”, “43.00” for “35.20”, “0.1” for “0.125”
(§2) A solution of about 400 mg/mL of the compound of Formula (Ia) having 17.00 w/w % water, 36.40 w/w % PEG 300, 35.20 w/w % of a sodium salt of a compound of Formula (Ia), 5.00 w/w % ethanol, and 6.40 w/w % poloxamer 188 was prepared. The solution was administered subcutaneously to male beagle dogs at a dose level of about 12 mg/kg and male Wistar Han rats at a dose level of about 50 mg/kg. The pharmacokinetic profiles were determined, and the results for dogs are summarized in Table and Table, while the results for rats are summarized in Table and Table below.
as §2, with “500” for “400”, “14.06” for “17.00”, “30.12” for “36.40”
A solution of about 300 mg/mL of the compound of Formula (Ia) having 23.33 w/w % water, 48.99 w/w % PEG 300, 26.47 w/w % of a sodium salt of a compound of Formula (Ia), and 1.21 w/w % poloxamer 188 was prepared. The solution was administered subcutaneously to male beagle dogs at a dose level of about 6 mg/kg and male Wistar Han rats at a dose level of about 50 mg/kg. The pharmacokinetic profiles were determined, and the results for dogs are summarized in Table and Table, while the results for rats are summarized in Table and Table below.
as §2, with “18.80” for “17.00”, “40.25” for “36.40”, “34.38” for “35.20”, “1.57” for “6.40”
as §2, with “500” for “400”, “16.29” for “17.00”, “34.88” for “36.40”, “41.92” for “35.20”, “1.91” for “6.40”
A solution of about 400 mg/mL of the compound of Formula (Ia) having 20.90 w/w % water, 44.72 w/w % PEG 300, and 34.38 w/w % of a sodium salt of a compound of Formula (Ia) was prepared. […]

[1] = individual rats, solution T, 400 mg/mL
[2] = individual rats, solution U, 500 mg/mL
[3] = individual rats, solution V, 300 mg/mL
[4] = mean, n = 3 rats, solution R, 400 mg/mL
[5] = mean, n = 3 rats, solution S, 500 mg/mL
[6] = mean, n = 3 rats, solution V, 300 mg/mL
[7] = mean, n = 5 rats, solution T, 400 mg/mL
[8] = mean, n = 5 rats, solution U, 500 mg/mL
[9] = individual rats, solution R, 400 mg/mL
[10] = individual rats, solution S, 500 mg/mL

CC(C)(C#Cc1ccc(-c2ccc(Cl)c3c(NS(C)(=O)=O)nn(CC(F)(F)F)c23)c([C@H](Cc2cc(F)cc(F)c2)NC(=O)Cn2nc(C(F)(F)F)c3c2C(F)(F)[C@@H]2C[C@H]32)n1)S(C)(=O)=O [compound of Formula (Ia)]
concentration at 8 h [1]: 294 nM | concentration at 8 h [2]: 176 nM | concentration at 8 h [3]: 170 nM | concentration at 8 h [4]: 112 nM | concentration at 8 h [5]: 100 nM | concentration at 8 h [6]: 155 nM | concentration at 8 h [7]: 211 nM | concentration at 8 h [8]: 142 nM | concentration at 24 h [9]: 167 nM | concentration at 24 h [10]: 111 nM | concentration at 24 h [2]: 300 nM | concentration at 24 h [3]: 222 nM | concentration at 24 h [4]: 162 nM | concentration at 24 h [5]: 127 nM | concentration at 24 h [6]: 193 nM | concentration at 24 h [7]: 339 nM | concentration at 24 h [8]: 224 nM | concentration at 48 h [9]: 184 nM | concentration at 48 h [10]: 92.6 nM | concentration at 48 h [3]: 265 nM | concentration at 48 h [4]: 151 nM | concentration at 48 h [5]: 123 nM | concentration at 48 h [6]: 197 nM | concentration at 48 h [7]: 307 nM | concentration at 48 h [8]: 211 nM | concentration at 72 h [9]: 168 nM | concentration at 72 h [10]: 95.8 nM | concentration at 72 h [1]: 353 nM | concentration at 72 h [3]: 187 nM | concentration at 72 h [4]: 148 nM | concentration at 72 h [5]: 127 nM | concentration at 72 h [6]: 148 nM | concentration at 72 h [7]: 247 nM | concentration at 72 h [8]: 197 nM | concentration at 96 h [9]: 181 nM | concentration at 96 h [10]: 105 nM | concentration at 96 h [2]: 230 nM | concentration at 96 h [3]: 164 nM | concentration at 96 h [4]: 152 nM | concentration at 96 h [5]: 120 nM | concentration at 96 h [6]: 136 nM | concentration at 96 h [7]: 240 nM | concentration at 96 h [8]: 167 nM | concentration at 168 h [9]: 191 nM | concentration at 168 h [10]: 123 nM | concentration at 168 h [3]: 100 nM | concentration at 168 h [4]: 160 nM | concentration at 168 h [5]: 109 nM | concentration at 168 h [6]: 104 nM | concentration at 168 h [7]: 173 nM | concentration at 168 h [8]: 154 nM | concentration at 336 h [9]: 251 nM | concentration at 336 h [3]: 194 nM | concentration at 336 h [4]: 261 nM | concentration at 336 h [5]: 183 nM | concentration at 336 h [6]: 201 nM | concentration at 336 h [7]: 254 nM | concentration at 336 h [8]: 244 nM | concentration at 504 h [9]: 348 nM | concentration at 504 h [10]: 415 nM | concentration at 504 h [3]: 241 nM | concentration at 504 h [4]: 353 nM | concentration at 504 h [5]: 287 nM | concentration at 504 h [6]: 265 nM | concentration at 504 h [7]: 301 nM | concentration at 504 h [8]: 303 nM | concentration at 672 h [9]: 290 nM | concentration at 672 h [10]: 407 nM | concentration at 672 h [3]: 274 nM
